Measurements: patent publication US20080274892A1, “Novel Haloalkylsulfonanilide Derivative, Herbicide, and Method of Use Thereof” (priority 2005, published 2008)

Key:
bulrush [1] = experiment: Test Example 4: low dosage test for rice paddy weeds; assay type: in vivo, Scirpus juncoides; conditions: 300 g/ha as an active ingredient; plants treated at the one leaf stage; 21 days after treatment; vs untreated control
Source text: (§1) The standard of judgment for herbicidal efficacy (degree of growth inhibition) and phytotoxicity 4 . . . 90%-100% of herbicidal efficacy or phytotoxicity 3 . . . 70%-89% of herbicidal efficacy or phytotoxicity 2 . . . 40%-69% of herbicidal efficacy or phytotoxicity 1 . . . 1%-39% of herbicidal efficacy or phytotoxicity 0 . . . 0% of herbicidal efficacy or phytotoxicity
A 75 cm^2 plastic pot was filled with soil (clay loam) and planted seeds of bulrush which is a rice paddy weed. After covering the top with 75 cm^3 soil, the pot was filled with water so that the soil submerged under 5 cm depth of water and kept in a hot house. The test plants, at the one leaf stage, were treated with the solution of a formulation containing the compound of the present invention as an active ingredient at the predetermined effective dosage (300 g/ha as an active ingredient). The pots were kept in a hot house for 21 days after the treatment and the herbicidal efficacy was investigated and evaluated according to the standard in Test Example 1 by comparing with the untreated control. Further, as a comparative compound, the compound No. 6-28 described in the JP-A-2004-107322 was used.

false pimpernel [2] = experiment: Test Example 2: herbicidal efficacy on rice paddy weeds post-emergence; assay type: in vivo, Lindernia pyxidaria; conditions: post-emergence, one leaf stage, 21 days after treatment
bulrush [3] = experiment: as above; assay type: in vivo, Scirpus juncoides; conditions: post-emergence, one leaf stage, 21 days after treatment
[4] = system: transplanted paddy rice plant and Bulrush; experiment: Test Example 5: selectivity between transplanted paddy rice plant and weeds; assay type: in vivo; conditions: (highest dosage with no phytotoxicity to paddy rice)/(lowest dosage with effective level 4 on Bulrush); rice 3000-100 g/ha, Bulrush 300-10 g/ha; 21 days
Method: as §1
Phytotoxicity test for transplanted paddy rice plants was carried out, as in Test Example 3, by the treatment of 3000, 1000, 300 and 100 (g/ha of the active ingredient) dosage, and herbicidal test to weed post-emergence was carried out to Burlush seeded as in Test Example 2 treating at 300, 100, 30 and 10 (g/ha) dosage. The pots were kept in a hot house for 21 days after the treatment, and the phytotoxicity and the herbicidal efficacy was investigated and evaluated according to the standard in Test Example 1 by comparing with the untreated control. […] Further, as a comparative compound, the compound No. 6-28 described in the JP-A-2004-107322 was used.

barnyard glass = experiment: Test Example 2: herbicidal efficacy on rice paddy weeds post-emergence; assay type: in vivo, Echinochloa crus-galli; conditions: post-emergence, one leaf stage, 21 days after treatment
Outline: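 Plastic pots of 75 cm^2 were filled with clay loam soil and sown with barnyard glass and bulrush seeds, then topped with 75 cm^3 soil containing false pimpernel seeds. The pots were flooded to 5 cm water depth and held in a hot house. Twenty-one days after treatment, herbicidal efficacy was graded against an untreated control.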

bulrush [5] = experiment: Test Example 1: herbicidal efficacy on rice paddy weeds pre-emergence; assay type: in vivo, Scirpus juncoides; conditions: 21 days
false pimpernel [6] = experiment: as above; assay type: in vivo, Lindernia pyxidaria; conditions: 21 days
[7] = system: paddy rice plant (cultivar: Nihonbare); experiment: Test Example 3: phytotoxicity test for transplanted paddy rice plant; assay type: in vivo; conditions: transplanted rice, 21 days after treatment
Outline: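 Clay loam soil was placed in a 75 cm^2 plastic pot and flooded to a water depth of 5 cm. Two Nihonbare paddy rice plants at the two-leaf stage were transplanted 1 cm deep and grown in a hot house. After treatment, pots stayed in the hot house for 21 days, and phytotoxicity was then graded against an untreated control.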

[8] = dosage 1000 g/ha, treated 5 days after transplantation

Structure (SMILES) | Herbicide effect to Bulrush (bulrush [1]) | False pimpernel post (herbicidal efficacy grade) (false pimpernel [2]; dosage 300 g/ha) | Bulrush post (herbicidal efficacy grade) (bulrush [3]; dosage 300 g/ha) | Selective Index [4] | Burnyard grass post (herbicidal efficacy grade) (barnyard glass; dosage 300 g/ha) | Bulrush pre (herbicidal efficacy grade) (bulrush [5]; dosage 300 g/ha) | False pimpernel pre (herbicidal efficacy grade) (false pimpernel [6]; dosage 300 g/ha) | Phytotoxicity to paddy rice ([7]; dosage 300 g/ha) | False pimpernel post (herbicidal efficacy grade) (false pimpernel [2]; dosage 1000 g/ha) | Bulrush post (herbicidal efficacy grade) (bulrush [3]; dosage 1000 g/ha) | Burnyard grass post (herbicidal efficacy grade) (barnyard glass; dosage 1000 g/ha) | Bulrush pre (herbicidal efficacy grade) (bulrush [5]; dosage 1000 g/ha) | False pimpernel pre (herbicidal efficacy grade) (false pimpernel [6]; dosage 1000 g/ha) | Phytotoxicity to paddy rice [7, 8]
CCCC1(C)CN(Cc2ccccc2NS(=O)(=O)C(F)(F)F)C(=O)O1 (racemic) [1-120] | 4 (90%-100% of herbicidal efficacy or phytotoxicity) | 4 (90%-100% of herbicidal efficacy or phytotoxicity) | 4 (90%-100% of herbicidal efficacy or phytotoxicity) | 10 | 3 (70%-89% of herbicidal efficacy or phytotoxicity) | 4 (90%-100% of herbicidal efficacy or phytotoxicity) | 4 (90%-100% of herbicidal efficacy or phytotoxicity) | 2 (40%-69% of herbicidal efficacy or phytotoxicity) |  |  |  |  |  | 
CC[C@@H]1CN(Cc2ccccc2NS(=O)(=O)C(F)(F)F)C(=O)O1 [1-57] | 4 (90%-100% of herbicidal efficacy or phytotoxicity) |  |  | 10 |  |  |  |  | 4 (90%-100% of herbicidal efficacy or phytotoxicity) | 4 (90%-100% of herbicidal efficacy or phytotoxicity) | 4 (90%-100% of herbicidal efficacy or phytotoxicity) | 4 (90%-100% of herbicidal efficacy or phytotoxicity) | 4 (90%-100% of herbicidal efficacy or phytotoxicity) | 1 (1%-39% of herbicidal efficacy or phytotoxicity)
CC1(C)CN(Cc2ccccc2NS(=O)(=O)C(F)(F)F)C(=S)O1 [1-49] | 4 (90%-100% of herbicidal efficacy or phytotoxicity) |  |  | 10 |  |  |  |  | 4 (90%-100% of herbicidal efficacy or phytotoxicity) | 4 (90%-100% of herbicidal efficacy or phytotoxicity) | 4 (90%-100% of herbicidal efficacy or phytotoxicity) | 4 (90%-100% of herbicidal efficacy or phytotoxicity) | 4 (90%-100% of herbicidal efficacy or phytotoxicity) | 2 (40%-69% of herbicidal efficacy or phytotoxicity)
CCC1(CC)CN(Cc2ccccc2N(C(=O)OCC(C)C)S(=O)(=O)C(F)(F)F)C(=S)O1 [1-179] | 4 (90%-100% of herbicidal efficacy or phytotoxicity) |  |  | 33.3 |  |  |  |  | 4 (90%-100% of herbicidal efficacy or phytotoxicity) | 4 (90%-100% of herbicidal efficacy or phytotoxicity) | 4 (90%-100% of herbicidal efficacy or phytotoxicity) | 4 (90%-100% of herbicidal efficacy or phytotoxicity) | 4 (90%-100% of herbicidal efficacy or phytotoxicity) | 0 (0% of herbicidal efficacy or phytotoxicity)
COC(=O)N(c1ccccc1CN1CC(C)(CC(C)C)OC1=O)S(=O)(=O)C(F)(F)F (racemic) [1-124] | 4 (90%-100% of herbicidal efficacy or phytotoxicity) |  |  | 10 |  |  |  |  | 4 (90%-100% of herbicidal efficacy or phytotoxicity) | 4 (90%-100% of herbicidal efficacy or phytotoxicity) | 4 (90%-100% of herbicidal efficacy or phytotoxicity) | 4 (90%-100% of herbicidal efficacy or phytotoxicity) | 4 (90%-100% of herbicidal efficacy or phytotoxicity) | 1 (1%-39% of herbicidal efficacy or phytotoxicity)
CCC1(C)CN(Cc2ccccc2N(C(=O)OCC(C)C)S(=O)(=O)C(F)(F)F)C(=O)O1 (racemic) [1-60] | 4 (90%-100% of herbicidal efficacy or phytotoxicity) |  |  | ≧30 |  |  |  |  | 4 (90%-100% of herbicidal efficacy or phytotoxicity) | 4 (90%-100% of herbicidal efficacy or phytotoxicity) | 4 (90%-100% of herbicidal efficacy or phytotoxicity) | 4 (90%-100% of herbicidal efficacy or phytotoxicity) | 4 (90%-100% of herbicidal efficacy or phytotoxicity) | 3 (70%-89% of herbicidal efficacy or phytotoxicity)
CCC1OC(=O)N(Cc2ccccc2NS(=O)(=O)C(F)(F)F)C1=O (stereo not shown) [1-192] | 4 (90%-100% of herbicidal efficacy or phytotoxicity) | 0 (0% of herbicidal efficacy or phytotoxicity) | 4 (90%-100% of herbicidal efficacy or phytotoxicity) | 10 | 0 (0% of herbicidal efficacy or phytotoxicity) | 4 (90%-100% of herbicidal efficacy or phytotoxicity) | 4 (90%-100% of herbicidal efficacy or phytotoxicity) | 1 (1%-39% of herbicidal efficacy or phytotoxicity) |  |  |  |  |  | 
COC(=O)N(c1ccccc1CN1CC(C)(C(C)(C)C)OC1=O)S(=O)(=O)C(F)(F)F (stereo not shown) [1-153] | 4 (90%-100% of herbicidal efficacy or phytotoxicity) |  |  | 10 |  |  |  |  | 4 (90%-100% of herbicidal efficacy or phytotoxicity) | 4 (90%-100% of herbicidal efficacy or phytotoxicity) | 4 (90%-100% of herbicidal efficacy or phytotoxicity) | 4 (90%-100% of herbicidal efficacy or phytotoxicity) | 4 (90%-100% of herbicidal efficacy or phytotoxicity) | 1 (1%-39% of herbicidal efficacy or phytotoxicity)
CC(C)COC(=O)N(c1ccccc1CN1CC2(CCCCC2)OC1=O)S(=O)(=O)C(F)(F)F [1-46] | 4 (90%-100% of herbicidal efficacy or phytotoxicity) |  |  | 10 |  |  |  |  | 4 (90%-100% of herbicidal efficacy or phytotoxicity) | 4 (90%-100% of herbicidal efficacy or phytotoxicity) | 4 (90%-100% of herbicidal efficacy or phytotoxicity) | 4 (90%-100% of herbicidal efficacy or phytotoxicity) | 4 (90%-100% of herbicidal efficacy or phytotoxicity) | 1 (1%-39% of herbicidal efficacy or phytotoxicity)
CCCCCOC(=O)N(c1ccccc1CN1CC(C)(C)OC1=O)S(=O)(=O)C(F)(F)F [1-92] | 4 (90%-100% of herbicidal efficacy or phytotoxicity) |  |  | 30 |  |  |  |  | 4 (90%-100% of herbicidal efficacy or phytotoxicity) | 4 (90%-100% of herbicidal efficacy or phytotoxicity) | 4 (90%-100% of herbicidal efficacy or phytotoxicity) | 4 (90%-100% of herbicidal efficacy or phytotoxicity) | 4 (90%-100% of herbicidal efficacy or phytotoxicity) | 3 (70%-89% of herbicidal efficacy or phytotoxicity)
COC(=O)N(c1ccccc1CN1CC(C)(C2(C)CC2)OC1=O)S(=O)(=O)C(F)(F)F (stereo not shown) [1-169] | 4 (90%-100% of herbicidal efficacy or phytotoxicity) |  |  | 10 |  |  |  |  | 4 (90%-100% of herbicidal efficacy or phytotoxicity) | 4 (90%-100% of herbicidal efficacy or phytotoxicity) | 4 (90%-100% of herbicidal efficacy or phytotoxicity) | 4 (90%-100% of herbicidal efficacy or phytotoxicity) | 4 (90%-100% of herbicidal efficacy or phytotoxicity) | 1 (1%-39% of herbicidal efficacy or phytotoxicity)
